Measured values from publication PMC10820135, “Pharmacokinetic, Tissue Distribution, Metabolite, and Toxicity Evaluation of the Matrine Derivative, (6aS, 10S, 11aR, 11bR, 11cS)-10-Methylaminododecahydro-3a, 7a-Diaza-benzo (de) Anthracene-8-thione” (Molecules, 2024).
“Also recorded” adds a separate entry of the source.

Experiment: Tissue distribution of MASM in rats
Assay type: in vivo, Sprague-Dawley rats
Details: rat
Protocol: UHPLC analysis was performed using a Thermo Accela AS system, employing an ACQUITY UPLC®BEH C18 (Waters Corporation, Wexfords, Ireland) (1.7 µm, 2.1 × 100 mm) column and a binary solvent system consisting of water containing 0.1% formic acid as mobile phase A and acetonitrile as mobile phase B. For pharmacokinetic evaluation, the gradient elution was set as follows: 97% A from 0 to 2 min, 97–70% A from 2 to 3 min, 70–20% A from 3 to 3.5 min, 20% A from 3.5 to 3.6 min, 20–97% A from 3.6 to 3.7 min, and 97% A from 3.7 to 5 min. For the metabolic test, the gradient elution in full scan mode was set as follows: 97% A from 0 to 2 min, 97–70% A from 2 to 4 min, 70–20% A from 4 to 6 min, 20% A from 6 to 7 min, 20–97% A from 7 to 8 min, and 97% A from 8 to 10 min. The flow rate was 0.2 mL/min, with a temperature of 40 °C maintained and an injection volume of 5 μL. The QQQ-MS/MS analysis was conducted using a Thermo TSQ QUANTUM ACCESS MAX system equipped with an electrospray ionization (ESI) source. The spray voltages were set at 4.0 kV and 2.5 kV for positive and negative ion modes, respectively; capillary and vaporizer temperatures were 320 °C and 350 °C, respectively; sheath and aux gas pressures were 35 and 10 psi, respectively.
A total of 36 Sprague-Dawley rats (18 male and 18 female) were randomly and equally assigned to 6 groups, with 3 male and 3 female rats in each group. Among these groups, 3 groups were administrated MASM intragastrically at a dosage of 60 mg/kg, while the remaining 3 groups received intraperitoneal administration of MASM at a dosage of 80 mg/kg. The rats in each group were euthanized at three different time points: 1 h, 2 h, and 24 h after administration. Subsequently, various tissues, including the heart, liver, spleen, lung, kidney, stomach, muscle, and brain, were promptly collected and weighed. These tissues were then homogenized using acetonitrile at a ratio of 1:10 and stored at a temperature of −80 °C until further analysis. During the analysis of the tissue sample, the protein was precipitated following the tissues: acetonitrile with a ratio of 1:3 and a volume of 5μL of the resulting supernatant were injected. The UHPLC-QQQ-MS/MS analysis method that was developed, underwent a comprehensive validation process, and the concentration of MASM in each tissue was determined using linear regression equations. Bar graphs were generated by applying Prism 8.0 (GraphPad Software Inc., San Diego, CA, USA).

Q: With `CNC1CC(=S)N2CC3CCCN4CCCC(C34)C2C1` [MASM, (6aS, 10S, 11aR, 11bR, 11cS)-10-methylaminododecahydro-3a, 7a-diaza-benzo (de) anthracene-8-thione] as the molecule, how does the “tissues with concentration surpassing other organs at 1 h” value (following the initial hour) read?
A: The value was “liver, kidney, and intestine”.

Q: And the “time at which Cmax in liver tissue was achieved” value (i.g. 60 mg/kg and i.p. 80 mg/kg)?
A: The value was ≤ 1 h.

Q: And the “tissue with higher concentration than other organs at 2 h and 24 h” value (i.g. 60 mg/kg or i.p. 80 mg/kg)?
A: Its value is “spleen and intestine”.

Q: And the “tissues of main distribution / higher accumulation” value (i.g. 60 mg/kg or i.p. 80 mg/kg, 1, 2, 24 h)?
A: The value was “primarily distributed in the liver, kidney, and spleen tissues”.

Q: And the detection in tissues (heart, liver, spleen, lung, kidney, brain, muscle, intestine, stomach)?
A: Its detection in tissues is “detected in all rat tissues including the brain; also recorded: detected in various tissues at 1, 2, and 24 h after administration”.
